In patent EP4745138A1, “THIO-GLUTARIMIDO ISOINDOLINONE DERIVATIVE, BIFUNCTIONAL PROTEIN DEGRADER CONTAINING SAME, AND USES THEREOF” (Gluetacs Therapeutics (Shanghai) Co., Ltd., priority 2023, dated 2025):
Where two headings read alike, the source gives them in different places. Values belong to the molecule of their own block, whether it stands above or below them.

What was measured:
MM.1S = assay: Tumor cell proliferation inhibition (CellTiter-Meiluncell Luminescent Cell Viability Assay); assay type: cell-based; conditions: Homo sapiens, MM1.S, MM.1S, 96 hours, Table I-12, FAK inhibitors; for inhibition at 0.01 µM: 10 nM, read-out: Inhibition Rate at 10 nM (%); for inhibition at 0.5 µM: 500 nM, read-out: Inhibition Rate at 500 nM (%)
Outline: (§1)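 Following overnight seeding, tumor cells received serial compound dilutions to final levels that included 10 nM and 500 nM. Viability was assessed by luminescence at the end of the specified exposure time. Cultures were kept at 37°C with 5% CO2.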

MV-4-11 = assay: as above; assay type: cell-based; conditions: Homo sapiens, 96 hours; for inhibition at 0.01 µM: MV4-11, 10 nM, read-out: Inhibition Rate at 10 nM (%); for inhibition at 0.5 µM: MV4-11, 500 nM, read-out: Inhibition Rate at 500 nM (%)
Outline: as §1

SW620 = assay: as above; assay type: cell-based; conditions: Homo sapiens, 96 hours; for inhibition at 0.01 µM: SW-620, 10 nM, read-out: Inhibition Rate at 10 nM (%); for inhibition at 0.5 µM: SW-620, 500 nM, read-out: Inhibition Rate at 500 nM (%)
Outline: as §1

FAK = biological target: T1, FAK (Homo sapiens, UniProt Q05397); assay: Western blot, target protein degradation in A549 Cell; assay type: cell-based; conditions: substrate protein remaining %, treated at 500 nM and 50 nM, 24 hours
T1 construct: endogenous in cells; host or cells: A549
Description: (§2) Conventional Western blot assay was performed to evaluate the effects of the compounds of the present disclosure on the expression of target proteins in cells.
(§3) (1) Cell Seeding and Protein Harvesting: The selected cells were processed according to the cell seeding procedure and protein harvesting procedure in Table II-2. Table II-2 Cell Seeding and Protein Harvesting Procedures
(§4) (2) To the collected supernatant, 5X SDS sample loading buffer was added, followed by denaturation at 95°C for 5 minutes. The denatured samples were then separated by SDS-PAGE electrophoresis on a polyacrylamide gel. Proteins were transferred to a nitrocellulose membrane (0.45 µm NC membrane), blocked with blocking buffer at room temperature for 1 hour, and subjected to antibody incubation and development procedures according to the antibody manufacturer's instructions (Cell Signaling Technology).
(§5) Half-Maximal Degradation Concentration value (the drug concentration required for degrading proteins by 50%, abbreviated as DC50) reads method: comparing the grayscale values of Western blot bands from drug-treated samples with those from blank DMSO-treated controls, and identifying the drug concentration range at which the grayscale value is half that of the DMSO-treated control bands.
(§6) DC50 values can be calculated using ImageJ software to measure grayscale values of Western blot bands from drug-treated samples. The concentration-response curve is fitted to estimate the drug concentration corresponding to half the grayscale value.
(§7) Target protein remaining (%) refers to the percentage of target protein remaining in cells after treatment with protein degrader compounds.
(§8) Calculation method for target protein remaining (%): Use ImageJ software to measure grayscale values of Western blot bands from drug (protein degrader)-treated samples. The grayscale value of drug-treated bands is divided by that of internal control protein bands, and the resulting quotient is normalized to obtain the relative percentage of remaining target protein after protein degrader treatment. Target protein degradation rate(%) = 1−target protein remaining(%). [formula]

[1] = biological target: T2, human Cereblon WT GST-tagged protein (Homo sapiens, UniProt Q96SW2); assay: CRBN-binding affinity, HTRF (CEREBLON BINDING kit); conditions: for inhibition at 0.5 µM: read-out: Inhibition Rate at 0.5 µM (%); for inhibition at 2 µM: read-out: Inhibition Rate at 2 µM (%)
T2 construct: purchased CISBIO 64BDCRBNPEH
Outline: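 Compounds are serially diluted in diluent #9 (1X) and added at final 2 µM and 0.5 µM. GST-tagged wild-type Cereblon is added next, followed by premixed thalidomide-red reagent and anti-GST Eu antibody, and HTRF signal is measured.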

RPMI-8226 = assay: Tumor cell proliferation inhibition (CellTiter-Meiluncell Luminescent Cell Viability Assay); assay type: cell-based; conditions: Homo sapiens, 96 hours, Table I-3, EGFR inhibitors; for inhibition at 0.01 µM: 10 nM, read-out: Inhibition Rate at 10 nM (%); for inhibition at 0.5 µM: 500 nM, read-out: Inhibition Rate at 500 nM (%)
Outline: as §1

EGFR = assay: Western blot, target protein degradation in H1975 Cell; assay type: cell-based, Human; conditions: substrate protein remaining %, treated at 500 nM and 50 nM, 24 hours
Description: as §2, §3, §4, §5, §6, §7, §8

CFPAC-1 = assay: Tumor cell proliferation inhibition (CellTiter-Meiluncell Luminescent Cell Viability Assay); assay type: cell-based; conditions: Homo sapiens, 96 hours, Table I-10, BCR-ABL inhibitors
Outline: (§9)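 Luminescent viability read-out (CellTiter-Meiluncell) after compound exposure for a specified time; IC50 determined. Seeding was done the day before dosing with serially diluted compound, final concentrations including 500 nM and 10 nM. Culture at 37°C, 5% CO2.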

TMD8 = assay: as above; assay type: cell-based; conditions: Homo sapiens, 96 hours; for inhibition at 0.01 µM: 10 nM, read-out: Inhibition Rate at 10 nM (%); for inhibition at 0.5 µM: 500 nM, read-out: Inhibition Rate at 500 nM (%)
Outline: as §9

T1 sequence (Q05397 whole entry): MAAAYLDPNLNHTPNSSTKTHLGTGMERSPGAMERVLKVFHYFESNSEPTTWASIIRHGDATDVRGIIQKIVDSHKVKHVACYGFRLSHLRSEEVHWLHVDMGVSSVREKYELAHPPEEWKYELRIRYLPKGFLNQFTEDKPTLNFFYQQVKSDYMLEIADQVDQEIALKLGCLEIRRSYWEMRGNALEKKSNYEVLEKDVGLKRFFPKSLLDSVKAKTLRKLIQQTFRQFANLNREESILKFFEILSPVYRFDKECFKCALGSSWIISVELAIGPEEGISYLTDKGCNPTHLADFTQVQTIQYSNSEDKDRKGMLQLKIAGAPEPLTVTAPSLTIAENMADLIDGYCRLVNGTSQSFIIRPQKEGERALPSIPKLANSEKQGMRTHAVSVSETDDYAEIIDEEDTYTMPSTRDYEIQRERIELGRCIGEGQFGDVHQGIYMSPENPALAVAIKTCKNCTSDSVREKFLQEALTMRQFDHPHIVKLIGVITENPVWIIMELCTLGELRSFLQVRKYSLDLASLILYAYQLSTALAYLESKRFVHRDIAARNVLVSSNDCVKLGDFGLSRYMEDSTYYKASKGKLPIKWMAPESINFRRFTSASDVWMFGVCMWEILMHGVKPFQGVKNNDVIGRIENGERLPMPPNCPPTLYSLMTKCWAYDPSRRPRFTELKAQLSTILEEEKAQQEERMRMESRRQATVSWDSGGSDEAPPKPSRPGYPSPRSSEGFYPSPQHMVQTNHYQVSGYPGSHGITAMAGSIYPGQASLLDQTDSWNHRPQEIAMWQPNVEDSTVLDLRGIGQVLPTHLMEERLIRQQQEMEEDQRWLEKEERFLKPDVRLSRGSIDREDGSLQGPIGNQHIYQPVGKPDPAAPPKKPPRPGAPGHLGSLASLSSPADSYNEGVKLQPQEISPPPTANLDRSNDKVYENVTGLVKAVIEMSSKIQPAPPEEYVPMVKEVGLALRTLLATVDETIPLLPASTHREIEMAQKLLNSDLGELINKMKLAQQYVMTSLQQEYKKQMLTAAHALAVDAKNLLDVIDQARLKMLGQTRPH
T2 sequence (Q96SW2 whole entry): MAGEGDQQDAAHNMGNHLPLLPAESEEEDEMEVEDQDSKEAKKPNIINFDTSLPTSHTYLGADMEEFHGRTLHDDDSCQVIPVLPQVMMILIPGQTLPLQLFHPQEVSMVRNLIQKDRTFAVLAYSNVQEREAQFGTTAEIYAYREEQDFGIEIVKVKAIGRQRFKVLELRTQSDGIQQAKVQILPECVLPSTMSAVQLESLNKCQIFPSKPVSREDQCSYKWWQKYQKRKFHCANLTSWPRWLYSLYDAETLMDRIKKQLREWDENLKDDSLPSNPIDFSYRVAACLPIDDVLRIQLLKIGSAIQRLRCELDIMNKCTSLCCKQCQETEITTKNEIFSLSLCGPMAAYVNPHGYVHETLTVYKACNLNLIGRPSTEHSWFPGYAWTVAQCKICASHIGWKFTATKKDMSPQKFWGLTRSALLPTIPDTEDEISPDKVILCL

Compound: CS(=O)(=O)c1cccc(CNc2nc(Nc3ccc(N4CCN(Cc5ccc6c(c5)CN(C5CCC(=O)NC5=O)C6=S)CC4)cc3)ncc2C(F)(F)F)c1 (centres unmarked) [GT-08780, 3-(5-((4-(4-((4-((3-(methylsulfonyl)benzyl)amino)-5-(trifluoromethyl)pyrimidin-2-yl)amino)phenyl)piperazin-1-yl)methyl)-1-thioxoisoindolin-2-yl)piperidine-2,6-dione]
inhibition at 0.01 µM (MM.1S): 20 to 30%
inhibition at 0.5 µM (MM.1S): 40 to 50%
inhibition at 0.01 µM (MV-4-11; Table I-12, FAK inhibitors): 20 to 30%
inhibition at 0.5 µM (MV-4-11; Table I-12, FAK inhibitors): 70 to 80%
inhibition at 0.01 µM (SW620; Table I-12, FAK inhibitors): 10 to 20%
inhibition at 0.5 µM (SW620; Table I-12, FAK inhibitors): 40 to 50%
Degradation of substrate protein FAK (FAK): A (0% ≤ substrate protein remaining % ≤ 80%)

Compound: CN(c1cccc(CNc2nc(Nc3ccc(N4CCN(Cc5cccc6c5CN(C5CCC(=O)NC5=O)C6=S)CC4)cc3)ncc2C(F)(F)F)c1)S(C)(=O)=O (centres unmarked) [GT-08883, N-(3-(((2-((4-(4-((2-(2,6-dioxopiperidin-3-yl)-1-thioxoisoindolin-4-yl)methyl)piperazin-1-yl)phenyl)amino)-5-(trifluoromethyl)pyrimidin-4-yl)amino)methyl)phenyl) -N-methylmethanesulfonamide]
inhibition at 0.01 µM (MM.1S): 10 to 20%
inhibition at 0.5 µM (MM.1S): 40 to 50%
inhibition at 0.01 µM (MV-4-11; Table I-12, FAK inhibitors): 20 to 30%
inhibition at 0.5 µM (MV-4-11; Table I-12, FAK inhibitors): 70 to 80%
inhibition at 0.01 µM (SW620; Table I-12, FAK inhibitors): 30 to 40%
inhibition at 0.5 µM (SW620; Table I-12, FAK inhibitors): 40 to 50%
Degradation of substrate protein FAK (FAK): A (0% ≤ substrate protein remaining % ≤ 80%)
inhibition at 0.5 µM [1]: 40 to 53%
inhibition at 2 µM [1]: 53 to 60%

Compound: COC1CCN(c2nccc(Nc3cc4c(cn3)c(N3CCN(Cc5ccc6c(c5)C(=S)N(C5CCC(=O)NC5=O)C6)CC3)nn4C(C)C)n2)CC1 (centres unmarked) [GT-08763, 3-(6-((4-(1-isopropyl-6-((2-(4-methoxypiperidin-1-yl)pyrimidin-4-yl)amino)-1H-pyrazolo[4,3-c]pyridin-3-yl)piperazin-1-yl)methyl)-1-thioxoisoindolin-2-yl)piperidine-2,6-dione]
inhibition at 0.01 µM (MV-4-11; Table I-3, EGFR inhibitors): 30 to 40%
inhibition at 0.5 µM (MV-4-11; Table I-3, EGFR inhibitors): 50 to 60%
inhibition at 0.01 µM (RPMI-8226): 30 to 40%
inhibition at 0.5 µM (RPMI-8226): 50 to 60%
Degradation of substrate protein EGFR (EGFR): A (0% ≤ substrate protein remaining % ≤ 80%)
inhibition at 0.5 µM [1]: 30 to 40%
inhibition at 2 µM [1]: 80 to 100%

Compound: COc1cc(N2CCC(N(C)Cc3ccc4c(c3)C(=S)N(C3CCC(=O)NC3=O)C4)CC2)c(C)cc1Nc1ncc(Br)c(Nc2ccc3nccnc3c2P(C)(C)=O)n1 (centres unmarked) [GT-08761, 3-(6-(((1-(4-((5-bromo-4-((5-(dimethylphosphoryl)quinoxalin-6-yl)amino)pyrimidin-2-yl)amino)-5-methoxy-2-methylphenyl)piperidin-4-yl)(methyl)amino)methyl)-1-thioxoisoindolin-2-yl)piperidine-2,6-dione]
inhibition at 0.01 µM (MV-4-11; Table I-3, EGFR inhibitors): 5 to 10%
inhibition at 0.5 µM (MV-4-11; Table I-3, EGFR inhibitors): 60 to 70%
inhibition at 0.01 µM (RPMI-8226): 20 to 30%
inhibition at 0.5 µM (RPMI-8226): 40 to 50%
Degradation of substrate protein EGFR (EGFR): A (0% ≤ substrate protein remaining % ≤ 80%)
inhibition at 0.5 µM [1]: 60 to 80%
inhibition at 2 µM [1]: 80 to 100%

Compound: Cc1ccc(C(=O)Nc2ccc(CN3CCN(Cc4ccc5c(c4)C(=S)N(C4CCC(=O)NC4=O)C5)CC3)c(C(F)(F)F)c2)cc1C#Cc1cnc2cccnn12 (centres unmarked) [GT-09439, N-(4-((4-((2-(2,6-dioxopiperidin-3-yl)-3-thioxoisoindolin-5-yl)methyl)piperazin-1-yl)methyl)-3-(trifluoromethyl)phenyl)-3-(imidazo[1,2-b]pyridazin-3-ylethynyl)-4-methylbenzamide]
inhibition at 0.01 µM (CFPAC-1; 10 nM, read-out: Inhibition Rate at 10 nM (%)): 5 to 10%
inhibition at 0.5 µM (CFPAC-1; 500 nM, read-out: Inhibition Rate at 500 nM (%)): 60 to 70%

Compound: CC(C)(C)c1cnc(CSc2cnc(NC(=O)C3CCN(Cc4ccc5c(c4)CN(C4CCC(=O)NC4=O)C5=S)CC3)s2)o1 (centres unmarked) [GT-09435, N-(5-(((5-(tert-butyl)oxazol-2-yl)methyl)thio)thiazol-2-yl)-1-((2-(2,6-dioxopiperidin-3-yl)-1-thioxoisoindolin-5-yl)methyl)piperidine-4-carboxamide]
inhibition at 0.01 µM (TMD8; Table I-7, CDK9 inhibitors): 0 to 5%
inhibition at 0.5 µM (TMD8; Table I-7, CDK9 inhibitors): 70 to 80%
inhibition at 0.5 µM [1]: 40 to 53%
inhibition at 2 µM [1]: 80 to 100%

Compound: C=CC(=O)Nc1cc(Nc2nccc(-c3cn(C)c4ccccc34)n2)c(OC)cc1N(C)CCN(C)C [Osimertinib, reference compound]
Degradation of substrate protein EGFR (EGFR): No degradation

Now from value to molecule, other results behind:

inhibition at 0.5 µM [1]: 30 to 40%
inhibition at 2 µM [1]: 80 to 100%
Compound: CN(c1nccnc1CNc1nc(Nc2ccc(N3CCN(Cc4ccc5c(c4)CN(C4CCC(=O)NC4=O)C5=S)CC3)cc2)ncc1C(F)(F)F)S(C)(=O)=O (centres unmarked) [GT-08779, N-(3-(((2-((4-(4-((2-(2,6-dioxopiperidin-3-yl)-1-thioxoisoindolin-5-yl)methyl)piperazin-1-yl)phenyl)amino)-5-(trifluoromethyl)pyrimidin-4-yl)amino)methyl)pyrazin-2-yl)-N-methylmethanesulfonamide]
inhibition at 0.01 µM (MV-4-11; Table I-12, FAK inhibitors): 10 to 20%
inhibition at 0.5 µM (MV-4-11; Table I-12, FAK inhibitors): 70 to 80%
Degradation of substrate protein FAK (FAK): A (0% ≤ substrate protein remaining % ≤ 80%)

inhibition at 0.5 µM [1]: 40 to 53%
inhibition at 2 µM [1]: 80 to 100%
Compound: Nc1ncnc2c1c(-c1ccc(Oc3ccccc3)cc1)nn2C1CCN(Cc2ccc3c(c2)CN(C2CCC(=O)NC2=O)C3=S)CC1 (centres unmarked) [GT-09436, 3-(5-((4-(4-amino-3-(4-phenoxyphenyl)-1H-pyrazolo[3,4-d]pyrimidin-1-yl)piperidin-1-yl)methyl)-1-thioxoisoindolin-2-yl)piperidine-2,6-dione]
inhibition at 0.01 µM (SW620; Table I-4, BTK inhibitors): 70 to 80%
inhibition at 0.5 µM (SW620; Table I-4, BTK inhibitors): 80 to 100%
inhibition at 0.01 µM (TMD8; Table I-4, BTK inhibitors): 15 to 20%
inhibition at 0.5 µM (TMD8; Table I-4, BTK inhibitors): 80 to 100%

inhibition at 0.5 µM [1]: 0 to 10%
inhibition at 2 µM [1]: 10 to 20%
Compound: C=CC(=O)N1CCC[C@@H](n2nc(-c3ccc(Oc4ccccc4)cc3)c3c(N)ncnc32)C1 [ibrutinib, Ibrutinib, reference compound]
inhibition at 0.01 µM (SW620; Table I-4, BTK inhibitors): -5 to 0%
inhibition at 0.5 µM (SW620; Table I-4, BTK inhibitors): 0 to 5%
inhibition at 0.01 µM (TMD8; Table I-4, BTK inhibitors): -5 to 0%
inhibition at 0.5 µM (TMD8; Table I-4, BTK inhibitors): 30 to 40%

inhibition at 0.5 µM [1]: 53 to 60%
inhibition at 2 µM [1]: 60 to 80%
Compound: CN(c1cccc(CNc2nc(Nc3ccc(N4CCN(Cc5ccc6c(c5)CN(C5CCC(=O)NC5=O)C6=S)CC4)cc3)ncc2C(F)(F)F)c1)S(C)(=O)=O (centres unmarked) [GT-08781, N-(3-(((2-((4-(4-((2-(2,6-dioxopiperidin-3-yl)-1-thioxoisoindolin-5-yl)methyl)piperazin-1-yl)phenyl)amino)-5-(trifluoromethyl)pyrimidin-4-yl)amino)methyl)phenyl) -N-methylmethanesulfonamide]
inhibition at 0.01 µM (MV-4-11; Table I-12, FAK inhibitors): 5 to 10%
inhibition at 0.5 µM (MV-4-11; Table I-12, FAK inhibitors): 60 to 70%
Degradation of substrate protein FAK (FAK): A (0% ≤ substrate protein remaining % ≤ 80%)
